“And” between values parts separate entries of the source, which are not always exact repeats. Identical values can stand only once.
Tested on: K24384-001-R-PDC complex spheroids, viability
Test: Anticancer human tumor K24384-001-R-PDC patient-derived pancreatic adenocarcinoma cell line growth inhibition [GQUAD]
Details: for viability, T/C: stronger effect = lower value
From the text: DNA G-quadruplex Stabilizer Agents in Combinations in Complex Spheroids
A high-throughput screen of multi-cell type tumor spheroids was designed to identify active combinations of DNA G-quadruplex stabilizer agents and targeted small molecules. Complex spheroids include a stromal component modeled by human endothelial cells (HUVEC) and fibroblasts modeled by human mesenchymal stem cells (MSCs). The concentration ranges selected for each drug and investigational agent were based upon clinically achievable concentrations if the clinical Cmax of the agent was known.
Compounds. The drugs and investigational agents: pidnarulex (CX-5461; NSC782164), APTO-253 (NSC789042), BRACO-19 (NSC847499), peposertib (NSC802822), ceralasertib (NSC780249), elimusertib (NSC800525), camonsertib (NSC841442), AZD-1390 (NSC803789), olaparib (NSC753686), talazoparib (NSC767125), ART-558 (NSC835418), sotorasib (NSC818433), MRTX-1133 (NSC836407), SN-38 (NSC673596), topotecan (NSC609699), etoposide (NSC141540), doxorubicin (NSC123127), gemcitabine (NSC613327), 5-fluorouracil (NSC19893), paclitaxel (NSC125973), vemurafenib (NSC761431), panobinostat (NSC761190), R-306465 (JNJ-16241199; NSC773264), adavosertib (NSC754352), TP-3654 (NSC805149), carboplatin (NSC241240), KSQ-4279 (NSC840948), and staurosporine (NSC755774) were obtained from the National Cancer Institute (NCI) Developmental Therapeutics Program Chemical Repository (34). The FDA-approved anticancer drug set is available from the NCI Developmental Therapeutics Program. […] The stock solutions were prepared in dimethyl sulfoxide (DMSO, Sigma-Aldrich, St. Louis, MO, cat. D2650) at 800-fold the tested concentration and stored at -70 degrees C prior to their use. All drugs and investigational agents were tested over a range starting from a high concentration at or near the clinical Cmax and decreasing in half-log increments. If the clinical Cmax for an agent had not been determined, the highest concentration tested was 10 microM.
2.3 Cell Culture. All cells were maintained in an incubator at 37 degrees C and 5% CO2 with 95% humidity. The PDC lines were cultured according to standard operating procedures established by the NCI PDMR. All PDCs were thawed and cultured in Matrigel-coated flasks prepared with a working solution of 1X Ham's F-12 nutrient mix, without supplementation (Invitrogen, cat. 11765054), 100 U/mL penicillin-streptomycin (Invitrogen, cat. 15140122), and 2.5% Matrigel (Corning Inc., cat. 354248) for the first three passages. The 857933-349-R-J2-PDC line was cultured in 6C/Colon 1B media, which includes advanced DMEM/F-12 (Thermo Fisher Scientific, cat. 12634028), 10 mM HEPES (Thermo Fisher Scientific, cat. 15630080), 1X GlutaMAX supplement (Thermo Fisher Scientific, cat. 35050061), 0.1 mg/mL primocin (InvivoGen, cat. ant-pm-2), 10% defined fetal bovine serum, heat inactivated (HyClone Laboratories Inc., cat. SH30070.03HI), 50% L-WRN conditioned media (ATCC, cat. CRL-3276), 1.25 mM N-Acetyl-L-cysteine (Sigma-Aldrich, cat. A9165), 10 mM nicotinamide (Sigma-Aldrich, cat. N0636), 1X B-27 supplement (Thermo Fisher Scientific, cat. 17504044), 1X N-2 supplement (Thermo Fisher Scientific, cat. 17502048), 10 microM Y-27632 dihydrochloride (Tocris Bioscience, cat. 1254), and 50 ng/mL human EGF recombinant protein (Thermo Fisher Scientific, cat. PHG0311). The 485176-168-R4-J1-PDC line was cultured in Panc media, which includes all 6C/Colon 1B media components plus 100 ng/mL human FGF-10 (Thermo Fisher Scientific, cat. 100-26), 500 nM SB-431542 (Selleckchem, cat. S1067), and gastrin (Tocris, cat. 3006).
[…]
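Also: spheroids exposed to compounds for seven days.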

Compound | IC50 (curve of compound) | IC50 (compound alone, run of 02/20/2024) | IC50 (compound alone, run of 02/26/2024) [nM] | viability, T/C (compound 0.0316 µM) | viability, T/C (compound 0.1 µM) | viability, T/C (compound 0.316 µM) | viability, T/C (compound 1 µM) | viability, T/C (compound 3.16 µM) | viability, T/C (compound 10 µM) | viability, T/C (compound 0.000999 µM) | viability, T/C (compound 0.00316 µM) | viability, T/C (compound 0.00999 µM) | viability, T/C (compound 0.0999 µM)
Cc1[nH]c2ccc(F)cc2c1-c1nc2c3cccnc3c3ncccc3c2[nH]1 |  | > 10000 nM and 9080 nM | > 10000 | 109% [middle of 12 runs] | 102% [middle of 12 runs] | 99% [middle of 12 runs] |  | 65.3% [middle of 12 runs] |  |  |  |  | 
Cc1[nH]c2ccccc2c1CCNCc1ccc(/C=C/C(=O)NO)cc1 | 116 nM and 126 nM and 101 nM |  |  | 90% and 89.4% and 90.5% |  | 6.17% and 6.7% and 5.53% |  |  |  | 103% and 120% and 118% | 96.8% and 103% and 92.5% | 92.9% and 110% and 98.1% | 56.2% and 61% and 48.7%
Cc1cnc(CNC(=O)c2c(=O)c3ccc(N4CCCN(C)CC4)nc3n3c2sc2ccccc23)cn1 |  |  |  | 82.8% [middle of 12 runs] | 66.4% [middle of 12 runs] | 50.4% [middle of 12 runs] | 44.4% [middle of 12 runs] | 34.6% [middle of 12 runs] |  |  |  |  | 
Cn1ncnc1[C@H]1c2n[nH]c(=O)c3cc(F)cc(c23)N[C@@H]1c1ccc(F)cc1 | > 316 nM |  |  | 79.5% and 80.1% and 87.8% |  | 85.2% and 80.7% and 93.3% |  |  |  | 112% and 100% and 116% | 106% and 95% and 96.9% | 109% and 76.1% and 136% | 88.6% and 88.1% and 99.9%
Nc1ccn(C2OC(CO)C(O)C2(F)F)c(=O)n1 (configuration not stated) | 285 nM and 108 nM and 531 nM |  |  | 84.3% and 75.7% and 81.2% | 63.9% and 51.3% and 63.6% | 50% and 35.2% and 65.7% | 34.6% and 28.7% and 32.3% | 21.7% and 26.4% and 21.4% | 15.8% and 21.2% and 19.7% |  |  |  | 
O=C(NO)c1cnc(N2CCN(S(=O)(=O)c3ccc4ccccc4c3)CC2)nc1 | 431 nM and 571 nM and 420 nM |  |  | 110% and 91.7% and 116% | 81% and 99.9% and 83.9% | 66.6% and 72.7% and 68.1% |  | 0.26% and 0.27% and 0.09% | 0.25% and 0.26% and 0.14% |  |  |  | 
O=C(c1cc(Cc2n[nH]c(=O)c3ccccc23)ccc1F)N1CCN(C(=O)C2CC2)CC1 | > 10000 nM |  |  | 104% and 98.6% and 94.7% | 93.9% and 91.4% and 99.2% | 113% and 98.2% and 86.2% | 93.1% and 97.6% and 91% | 101% and 72.5% and 91.1% | 79.3% and 69.8% and 82.3% |  |  |  | 
O=c1[nH]cc(F)c(=O)[nH]1 | 1640 nM and > 10000 nM and 1500 nM |  |  | 101% and 113% and 79.9% | 71.8% and 95.1% and 98.7% | 89.6% and 94.3% and 82.2% | 54.9% and 55.5% and 54.3% | 41.3% and 45.8% and 44.6% | 45.5% and 56.4% and 37.8% |  |  |  | 

More lines, main results first:

IC50 (curve of compound) | IC50 (compound alone, run of 02/20/2024) | IC50 (compound alone, run of 02/26/2024) [nM] | Compound | viability, T/C (compound 0.0316 µM) | viability, T/C (compound 0.1 µM) | viability, T/C (compound 0.316 µM) | viability, T/C (compound 1 µM) | viability, T/C (compound 3.16 µM) | viability, T/C (compound 10 µM) | viability, T/C (compound 0.000999 µM) | viability, T/C (compound 0.00316 µM) | viability, T/C (compound 0.00999 µM) | viability, T/C (compound 0.0999 µM)
964 nM and 1320 nM and 884 nM |  |  | COc1cc(C2c3cc4c(cc3C(OC3OC5COC(C)OC5C(O)C3O)C3COC(=O)C23)OCO4)cc(OC)c1O (configuration not stated) | 103% and 98.4% and 102% | 98% (2×) and 98.4% | 75.9% and 85.9% and 71.3% | 48.9% and 52.9% and 48.6% | 37.1% and 41.1% and 35.2% | 30.8% and 35.4% and 31.2% |  |  |  | 
2660 nM and 2310 nM and 4740 nM |  |  | COc1ccc([C@@H](O)c2cc(-c3ncnc4cc(N5CCOCC5)ccc34)c(F)cc2Cl)nn1 | 92.4% and 98.4% and 120% | 99.1% and 95.7% and 103% | 103% and 83.4% and 83.3% | 72.3% and 65% and 84.7% | 48.4% and 44.9% and 56% | 29.8% and 22.7% and 35.5% |  |  |  | 
201 nM and 144 nM and 161 nM |  |  | COc1cccc2c1C(=O)c1c(O)c3c(c(O)c1C2=O)CC(O)(C(=O)CO)CC3OC1CC(N)C(O)C(C)O1 (configuration not stated) | 96.8% and 80.5% and 92.1% | 67.9% and 52.2% and 54.5% | 38.1% and 41.2% and 43.5% | 19.5% and 22.3% and 19.1% | 7.67% and 6.06% and 6.27% | 4.91% and 3.92% and 4.93% |  |  |  | 
> 10000 nM |  |  | COc1ncnc(C2CC2)c1-c1ncc2cnn(Cc3ccc(-c4nc(C(F)(F)F)cn4C(C)C)cc3)c2n1 | 90.9% and 94.8% and 89.7% | 101% and 104% and 81.5% | 100% and 102% and 101% | 75.5% and 96.3% and 84.7% | 109% and 103% and 87.2% | 96.1% and 110% and 99.2% |  |  |  | 
> 10000 nM |  |  | Cc1cccc(N(C)C(=O)C2C(O)CCN2c2nc(C)cc(C(F)(F)F)c2C#N)c1 (configuration not stated) | 111% and 106% and 99% | 106% and 98% and 82% | 122% and 102% and 99.9% | 91.4% and 86.8% and 108% | 115% and 88% and 114% | 115% and 106% and 127% |  |  |  | 
